PubChem BioAssay AID1963836 (Molecular Pharmacology Branch, DTP, NCI, 2024)
pIC50: −log10 of the molar value.

Tested on: 857933-349-R-J2-PDC complex spheroid viability
Assay: Anticancer human tumor 857933-349-R-J2-PDC patient-derived colon adenocarcinoma cell line growth inhibition [POLQ]
Conditions: for pIC50: curve of first compound; for viability, T/C: stronger effect = lower value
Procedure: Multicellular complex tumor spheroid response to Polymerase (POL) inhibitors (novobiocin, ART-558, RP6685) in combination with a variety of drugs and investigational agents in selected tumor cell lines
The POL inhibitors (novobiocin, ART-558, and RP6685) were evaluated both individually and in combination with standard of care and investigational anticancer small molecules within a complex spheroid model of solid tumors. . Complex spheroids include a stromal component modeled by human endothelial cells (HUVEC) and fibroblasts modeled by human mesenchymal stem cells (MSCs). The concentration ranges selected for each drug and investigational agent were based upon clinically achievable concentrations if the clinical Cmax of the agent was known.
Compounds. The drugs and investigational agents: novobiocin (NSC847541), ART-558 (NSC835418), RP-6685 (NSC848927), peposertib (NSC802822), ceralasertib (NSC780249), elimusertib (NSC800525), camonsertib (NSC841442), AZD-1390 (NSC803789), olaparib (NSC753686), talazoparib (NSC767125), rucaparib (NSC756644), sotorasib (NSC818433), MRTX-1133 (NSC836407), SN-38 (NSC673596), topotecan (NSC609699), epotoside (NSC141540), doxorubicin (NSC123127), gemcitabine (NSC613327), 5-fluorouracil (NSC19893), paclitaxel (NSC125973), vemurafenib (NSC761431), MSA-2 (NSC828583), SN-011 (NSC837082), adavosertib (NSC754352), prexasertib (NSC758257), carboplatin (NSC241240) and oxaliplatin (NSC266046), were obtained from the National Cancer Institute (NCI) Developmental Therapeutics Program Chemical Repository (21). The FDA-approved anticancer drug set is available from the Developmental Therapeutics Program at https://dtp.cancer.gov/organization/dscb/obtaining/. […] The stock solutions were prepared in dimethyl sulfoxide (DMSO, Sigma-Aldrich, St. Louis, MO, cat. D2650), except for the platinum compounds which were prepared in saline (Quality Biological, Gaithersburg, MD, cat. 114-055-101), at 800-fold the tested concentration and stored at -70 degrees C prior to their use. All drugs and investigational agents were tested over a range starting from a high concentration at or near the clinical Cmax and decreasing in half-log increments. If the clinical Cmax for an agent had not been determined, the highest concentration tested was 10 microM, except for SN-38, which was tested at a high concentration of 1 microM.
Cell Culture. All cells were maintained in an incubator at 37 degrees C and 5% CO2 with 95% humidity. The PDC lines were cultured according to standard operating procedures established by the NCI PDMR (https://pdmr.cancer.gov). Table 3 of the manuscript, lists the cell lines along with the number of the three cell types plated to form the mct-spheroids and media for tumor cell growth. After thawing, all PDC lines, except 997537-175-T-J1-PDC and 415267-285-R-J2-PDC, were cultured in Matrigel-coated flasks prepared with a working solution of 1X Ham's F-12 nutrient mix, without supplementation (Thermo Fisher Scientific, cat. 11765054), 100 U/mL penicillin-streptomycin (Thermo Fisher Scientific, cat. 15140122), and 2.5% Matrigel (Corning Inc., Corning, NY, cat. 354248) for the first three passages. The two PDC lines 997537-175-T-J1-PDC and 415267-285-R-J2-PDC were cultured on uncoated flasks. The 857933-349-R-J2-PDC line was cultured in 6C/Colon 1B media containing advanced DMEM/F-12 (Thermo Fisher Scientific, cat. 12634028), 10 mM HEPES (Thermo Fisher Scientific, cat. 15630080), 1X GlutaMAX supplement (Thermo Fisher Scientific, cat. 35050061), 0.1 mg/mL primocin (InvivoGen, San Diego, CA, cat. ant-pm-2), 10% defined fetal bovine serum, heat inactivated (HyClone Laboratories Inc., Logan, UT, cat. SH30070.03HI), 50% L-WRN conditioned media (ATCC, cat. CRL-3276), 1.25 mM N-Acetyl-L-cysteine (Sigma-Aldrich, cat. A9165), 10 mM nicotinamide (Sigma-Aldrich, cat. N0636), 1X B-27 supplement (Thermo Fisher Scientific, cat. 17504044), 1X N-2 supplement (Thermo Fisher Scientific, cat. […]

[1] = second compound 0.0316 µM, first compound 0.0316 µM
[2] = second compound 0.0316 µM, first compound 0.1 µM
[3] = second compound 0.1 µM, first compound 0.0316 µM
[4] = second compound 0.1 µM, first compound 0.1 µM
[5] = second compound 0.316 µM, first compound 0.0316 µM
[6] = second compound 0.316 µM, first compound 0.1 µM
[7] = second compound 1 µM, first compound 0.0316 µM
[8] = second compound 1 µM, first compound 0.1 µM
[9] = second compound 3.16 µM, first compound 0.0316 µM
[10] = second compound 3.16 µM, first compound 0.1 µM
[11] = second compound 10 µM, first compound 0.0316 µM
[12] = second compound 10 µM, first compound 0.1 µM
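Note: spheroids exposed to compounds for seven days before readout.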

SMILES: Cn1ncnc1[C@H]1c2n[nH]c(=O)c3cc(F)cc(c23)N[C@@H]1c1ccc(F)cc1 + Nc1ccc(C#CCN(C(=O)Cc2ncc(C(F)(F)F)cc2C(F)(F)F)c2ccc(F)cc2)nn1
- pIC50 (second compound 0.0316 µM): < 7.00
- pIC50 (second compound 0.1 µM): < 7.00
- pIC50 (second compound 0.316 µM): < 7.00
- pIC50 (second compound 1 µM): < 7.00
- pIC50 (second compound 3.16 µM): < 7.00
- pIC50 (second compound 10 µM): < 7.00
- viability, T/C (second compound 0.0316 µM, first compound 0.000316 µM): 90.9%
- viability, T/C (second compound 0.0316 µM, first compound 0.001 µM): 83.9%
- viability, T/C (second compound 0.0316 µM, first compound 0.00316 µM): 80.7%
- viability, T/C (second compound 0.0316 µM, first compound 0.01 µM): 90%
- viability, T/C [1]: 95%
- viability, T/C [2]: 85.1%
- viability, T/C (second compound 0.1 µM, first compound 0.000316 µM): 92.7%
- viability, T/C (second compound 0.1 µM, first compound 0.001 µM): 92.7%
- viability, T/C (second compound 0.1 µM, first compound 0.00316 µM): 94%
- viability, T/C (second compound 0.1 µM, first compound 0.01 µM): 104%
- viability, T/C [3]: 103%
- viability, T/C [4]: 91.5%
- viability, T/C (second compound 0.316 µM, first compound 0.000316 µM): 104%
- viability, T/C (second compound 0.316 µM, first compound 0.001 µM): 101%
- viability, T/C (second compound 0.316 µM, first compound 0.00316 µM): 97%
- viability, T/C (second compound 0.316 µM, first compound 0.01 µM): 105%
- viability, T/C [5]: 75%
- viability, T/C [6]: 97.6%
- viability, T/C (second compound 1 µM, first compound 0.000316 µM): 105%
- viability, T/C (second compound 1 µM, first compound 0.001 µM): 85.8%
- viability, T/C (second compound 1 µM, first compound 0.00316 µM): 86%
- viability, T/C (second compound 1 µM, first compound 0.01 µM): 97.5%
- viability, T/C [7]: 93.9%
- viability, T/C [8]: 93.6%
- viability, T/C (second compound 3.16 µM, first compound 0.000316 µM): 86.2%
- viability, T/C (second compound 3.16 µM, first compound 0.001 µM): 80.2%
- viability, T/C (second compound 3.16 µM, first compound 0.00316 µM): 93.5%
- viability, T/C (second compound 3.16 µM, first compound 0.01 µM): 98%
- viability, T/C [9]: 111%
- viability, T/C [10]: 94.2%
- viability, T/C (second compound 10 µM, first compound 0.000316 µM): 84.8%
- viability, T/C (second compound 10 µM, first compound 0.001 µM): 82.1%
- viability, T/C (second compound 10 µM, first compound 0.00316 µM): 98.3%
- viability, T/C (second compound 10 µM, first compound 0.01 µM): 92.2%
- viability, T/C [11]: 93.2%
- viability, T/C [12]: 61.7%

SMILES: C=CC(=O)N1CCN(c2nc(=O)n(-c3c(C)ccnc3C(C)C)c3nc(-c4c(O)cccc4F)c(F)cc23)C(C)C1 (centres undefined) + Cc1cccc(N(C)C(=O)C2C(O)CCN2c2nc(C)cc(C(F)(F)F)c2C#N)c1
- pIC50 (second compound 0.0316 µM): < 5.00
- pIC50 (second compound 0.1 µM): < 5.00
- pIC50 (second compound 0.316 µM): < 5.00
- pIC50 (second compound 1 µM): < 5.00
- pIC50 (second compound 3.16 µM): < 5.00
- pIC50 (second compound 10 µM): < 5.00
- viability, T/C [1]: 101%
- viability, T/C [2]: 104%
- viability, T/C (second compound 0.0316 µM, first compound 0.316 µM): 94.8%
- viability, T/C (second compound 0.0316 µM, first compound 1 µM): 113%
- viability, T/C (second compound 0.0316 µM, first compound 3.16 µM): 97.2%
- viability, T/C (second compound 0.0316 µM, first compound 10 µM): 80.5%
- viability, T/C [3]: 114%
- viability, T/C [4]: 106%
- viability, T/C (second compound 0.1 µM, first compound 0.316 µM): 73%
- viability, T/C (second compound 0.1 µM, first compound 1 µM): 112%
- viability, T/C (second compound 0.1 µM, first compound 3.16 µM): 98.9%
- viability, T/C (second compound 0.1 µM, first compound 10 µM): 85.3%
- viability, T/C [5]: 91.1%
- viability, T/C [6]: 100%
- viability, T/C (second compound 0.316 µM, first compound 0.316 µM): 109%
- viability, T/C (second compound 0.316 µM, first compound 1 µM): 87.4%
- viability, T/C (second compound 0.316 µM, first compound 3.16 µM): 84.4%
- viability, T/C (second compound 0.316 µM, first compound 10 µM): 70%
- viability, T/C [7]: 95.3%
- viability, T/C [8]: 95.2%
- viability, T/C (second compound 1 µM, first compound 0.316 µM): 89.3%
- viability, T/C (second compound 1 µM, first compound 1 µM): 101%
- viability, T/C (second compound 1 µM, first compound 3.16 µM): 113%
- viability, T/C (second compound 1 µM, first compound 10 µM): 97.9%
- viability, T/C [9]: 76.5%
- viability, T/C [10]: 106%
- viability, T/C (second compound 3.16 µM, first compound 0.316 µM): 109%
- viability, T/C (second compound 3.16 µM, first compound 1 µM): 84%
- viability, T/C (second compound 3.16 µM, first compound 3.16 µM): 99.8%
- viability, T/C (second compound 3.16 µM, first compound 10 µM): 95.2%
- viability, T/C [11]: 88.7%
- viability, T/C [12]: 84.2%
- viability, T/C (second compound 10 µM, first compound 0.316 µM): 101%
- viability, T/C (second compound 10 µM, first compound 1 µM): 85.9%
- viability, T/C (second compound 10 µM, first compound 3.16 µM): 91.8%
- viability, T/C (second compound 10 µM, first compound 10 µM): 77.7%
